Reference: patent US20210070748A1, “INHIBITORS OF BRUTONS TYROSINE KINASE” (Pharmacyclics LLC, priority 2015, published 2021)

Key:
Format in all cases: biochemical
[1] = biological target: T1, BTK-WT (Homo sapiens, UniProt Q06187); test: Btk in vitro inhibitory activity (one of Method A TR-FRET, Method B electrophoretic mobility shift, Method C radiometric filter binding); conditions: D-compounds panel data; read-out: IC50 BTK-WT
T1 construct: purified from insect cells as a full-length construct containing an N-terminal 6X-His tag; His6 (N); made in house; host or cells: insect cells (baculovirus Sf21 in Method B)

[2] = biological target: T2, JAK3 (Homo sapiens, UniProt P52333); test: Inhibition of a panel of kinases, in vitro HotSpot kinase assay: JAK3; conditions: D-compounds panel data; 1 μM ATP; read-out: IC50 JAK3
T2 sequence (P52333 1-1124): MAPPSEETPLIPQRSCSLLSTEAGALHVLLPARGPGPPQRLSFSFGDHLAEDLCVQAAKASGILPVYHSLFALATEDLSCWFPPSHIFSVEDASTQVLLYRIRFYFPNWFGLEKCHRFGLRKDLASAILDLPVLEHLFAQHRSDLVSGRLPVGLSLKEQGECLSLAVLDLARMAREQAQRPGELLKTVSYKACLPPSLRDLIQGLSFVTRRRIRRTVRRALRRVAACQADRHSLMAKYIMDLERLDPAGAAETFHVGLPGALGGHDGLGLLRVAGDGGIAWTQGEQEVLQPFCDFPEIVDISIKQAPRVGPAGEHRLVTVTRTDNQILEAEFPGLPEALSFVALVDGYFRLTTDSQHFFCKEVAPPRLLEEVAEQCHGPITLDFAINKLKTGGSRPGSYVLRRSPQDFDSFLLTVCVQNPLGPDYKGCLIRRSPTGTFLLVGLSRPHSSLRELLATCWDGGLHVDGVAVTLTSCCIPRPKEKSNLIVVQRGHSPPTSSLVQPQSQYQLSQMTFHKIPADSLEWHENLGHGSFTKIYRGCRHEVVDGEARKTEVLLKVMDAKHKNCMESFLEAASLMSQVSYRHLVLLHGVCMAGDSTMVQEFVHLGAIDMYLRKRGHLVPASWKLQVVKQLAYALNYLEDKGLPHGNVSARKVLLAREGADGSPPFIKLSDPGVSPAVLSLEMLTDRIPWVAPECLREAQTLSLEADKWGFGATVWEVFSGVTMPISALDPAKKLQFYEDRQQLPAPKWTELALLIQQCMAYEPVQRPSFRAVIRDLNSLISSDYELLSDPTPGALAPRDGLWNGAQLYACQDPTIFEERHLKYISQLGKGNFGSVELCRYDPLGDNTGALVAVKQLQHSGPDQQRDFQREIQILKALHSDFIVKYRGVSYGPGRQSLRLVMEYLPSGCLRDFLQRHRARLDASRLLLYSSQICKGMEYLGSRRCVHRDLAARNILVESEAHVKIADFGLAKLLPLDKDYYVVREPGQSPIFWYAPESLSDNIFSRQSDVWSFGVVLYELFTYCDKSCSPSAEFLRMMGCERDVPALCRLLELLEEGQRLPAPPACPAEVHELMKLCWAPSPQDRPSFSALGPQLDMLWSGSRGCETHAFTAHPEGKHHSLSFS

[3] = biological target: LCK (Homo sapiens, UniProt P06239); test: Inhibition of a panel of kinases, in vitro HotSpot kinase assay: LCK; conditions: D-compounds panel data; 1 μM ATP; read-out: IC50 LCK
[4] = biological target: EGFR (Homo sapiens, UniProt P00533); test: Inhibition of a panel of kinases, in vitro HotSpot kinase assay: EGFR; conditions: D-compounds panel data; 1 μM ATP
Procedure: (§1) The degree of inhibition of a panel of kinases is determined using the in vitro HotSpot kinase assay (purified enzymes, ^33P-ATP, an appropriate substrate and 1 μM ATP).

[5] = biological target: SRC (Homo sapiens, UniProt P12931); test: Inhibition of a panel of kinases, in vitro HotSpot kinase assay: SRC; conditions: D-compounds panel data; 1 μM ATP
Procedure: as §1

Sequence of LCK (P06239 whole entry): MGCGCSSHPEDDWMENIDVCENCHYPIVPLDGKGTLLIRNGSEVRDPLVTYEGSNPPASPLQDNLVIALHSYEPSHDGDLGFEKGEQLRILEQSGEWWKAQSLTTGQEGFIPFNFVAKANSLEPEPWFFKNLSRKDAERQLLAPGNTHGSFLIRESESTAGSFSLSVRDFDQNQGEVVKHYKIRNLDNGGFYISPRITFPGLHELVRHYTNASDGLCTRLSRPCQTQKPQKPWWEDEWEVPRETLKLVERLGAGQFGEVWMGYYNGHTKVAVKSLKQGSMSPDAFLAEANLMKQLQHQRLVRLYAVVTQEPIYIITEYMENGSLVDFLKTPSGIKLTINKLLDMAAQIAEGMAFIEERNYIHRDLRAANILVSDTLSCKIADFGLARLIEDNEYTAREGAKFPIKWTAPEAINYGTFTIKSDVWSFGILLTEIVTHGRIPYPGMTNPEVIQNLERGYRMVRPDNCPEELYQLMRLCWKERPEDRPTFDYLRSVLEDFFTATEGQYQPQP
Sequence of EGFR (P00533 25-1210): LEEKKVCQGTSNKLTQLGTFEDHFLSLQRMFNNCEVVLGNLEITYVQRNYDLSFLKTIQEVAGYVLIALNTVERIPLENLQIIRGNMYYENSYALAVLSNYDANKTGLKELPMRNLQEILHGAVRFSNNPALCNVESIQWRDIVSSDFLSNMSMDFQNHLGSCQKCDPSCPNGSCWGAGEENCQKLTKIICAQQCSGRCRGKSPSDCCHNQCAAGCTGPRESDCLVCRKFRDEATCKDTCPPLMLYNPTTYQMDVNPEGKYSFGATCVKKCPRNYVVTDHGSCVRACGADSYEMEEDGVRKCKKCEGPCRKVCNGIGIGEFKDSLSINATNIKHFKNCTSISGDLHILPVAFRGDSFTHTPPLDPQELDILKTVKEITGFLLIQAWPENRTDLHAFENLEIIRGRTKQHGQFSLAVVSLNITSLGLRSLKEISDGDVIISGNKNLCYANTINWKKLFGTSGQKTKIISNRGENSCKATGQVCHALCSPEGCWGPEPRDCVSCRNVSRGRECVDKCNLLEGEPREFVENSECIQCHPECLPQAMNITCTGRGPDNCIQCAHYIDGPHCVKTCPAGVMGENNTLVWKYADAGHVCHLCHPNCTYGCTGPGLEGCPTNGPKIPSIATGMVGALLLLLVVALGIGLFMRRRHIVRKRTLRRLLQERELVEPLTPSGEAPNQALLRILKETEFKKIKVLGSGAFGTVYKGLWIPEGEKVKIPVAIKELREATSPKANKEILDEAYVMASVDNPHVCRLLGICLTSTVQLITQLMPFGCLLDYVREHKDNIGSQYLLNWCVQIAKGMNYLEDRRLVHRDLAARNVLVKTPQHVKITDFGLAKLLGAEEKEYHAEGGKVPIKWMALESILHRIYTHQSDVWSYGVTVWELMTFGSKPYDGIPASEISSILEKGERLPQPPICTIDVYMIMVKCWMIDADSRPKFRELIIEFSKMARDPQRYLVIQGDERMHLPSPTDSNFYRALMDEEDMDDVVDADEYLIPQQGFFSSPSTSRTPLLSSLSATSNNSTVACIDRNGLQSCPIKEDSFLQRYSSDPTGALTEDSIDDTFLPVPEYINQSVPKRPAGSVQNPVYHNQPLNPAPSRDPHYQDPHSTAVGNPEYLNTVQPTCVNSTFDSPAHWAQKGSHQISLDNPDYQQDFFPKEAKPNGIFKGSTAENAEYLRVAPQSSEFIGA
T1 sequence (Q06187 whole entry): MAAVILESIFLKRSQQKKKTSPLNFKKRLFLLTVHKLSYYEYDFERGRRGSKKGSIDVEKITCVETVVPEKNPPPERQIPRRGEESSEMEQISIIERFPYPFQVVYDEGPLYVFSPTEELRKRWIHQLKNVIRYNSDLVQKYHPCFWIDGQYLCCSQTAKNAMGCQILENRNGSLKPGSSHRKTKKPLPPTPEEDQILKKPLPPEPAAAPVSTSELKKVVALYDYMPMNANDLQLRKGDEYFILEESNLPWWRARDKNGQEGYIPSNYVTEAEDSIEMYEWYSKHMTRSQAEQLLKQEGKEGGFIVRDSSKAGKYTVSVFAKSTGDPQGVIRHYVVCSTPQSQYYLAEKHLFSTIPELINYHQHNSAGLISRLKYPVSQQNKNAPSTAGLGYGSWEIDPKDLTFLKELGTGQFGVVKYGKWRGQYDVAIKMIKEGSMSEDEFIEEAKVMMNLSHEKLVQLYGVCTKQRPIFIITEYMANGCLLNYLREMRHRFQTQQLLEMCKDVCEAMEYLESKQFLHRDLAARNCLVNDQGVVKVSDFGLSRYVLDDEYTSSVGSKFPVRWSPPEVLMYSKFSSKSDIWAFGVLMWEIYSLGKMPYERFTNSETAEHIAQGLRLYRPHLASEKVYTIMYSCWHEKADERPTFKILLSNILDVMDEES
Sequence of SRC (P12931 whole entry): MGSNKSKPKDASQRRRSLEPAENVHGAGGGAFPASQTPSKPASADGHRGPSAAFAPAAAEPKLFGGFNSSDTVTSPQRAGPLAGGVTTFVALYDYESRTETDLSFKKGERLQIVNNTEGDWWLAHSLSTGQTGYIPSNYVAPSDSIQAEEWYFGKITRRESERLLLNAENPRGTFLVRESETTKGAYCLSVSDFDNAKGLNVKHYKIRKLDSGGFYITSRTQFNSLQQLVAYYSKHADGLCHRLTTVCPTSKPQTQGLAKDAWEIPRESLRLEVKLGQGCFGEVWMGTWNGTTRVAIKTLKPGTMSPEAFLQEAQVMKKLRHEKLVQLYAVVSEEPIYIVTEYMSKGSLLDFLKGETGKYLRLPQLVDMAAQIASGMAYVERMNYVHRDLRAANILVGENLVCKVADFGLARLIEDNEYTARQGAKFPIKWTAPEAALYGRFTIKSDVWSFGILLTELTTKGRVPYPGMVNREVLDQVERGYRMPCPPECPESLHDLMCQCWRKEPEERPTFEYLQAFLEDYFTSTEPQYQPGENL

| SMILES | IC50 [1] [nM] | IC50 [2] [nM] | IC50 [3] [nM] | IC50 [4] [nM] | IC50 [5] [nM] |
| --- | --- | --- | --- | --- | --- |
| C[C@@H]1[C@H](NC(=O)c2ccc(C3CC3)cc2)CCCN1c1cnc(C(N)=O)c(Nc2ccc(OC3C[C@H]4CC[C@@H](C3)N4C)cc2)n1 (stereo partly drawn) [Example D-104, 5-[(2R,3R)-3-(4-cyclopropylbenzamido)-2-methylpiperidin-1-yl]-3-[(4-{[(1R,5S)-8-methyl-8-azabicyclo[3.2.1]octan-3-yl]oxy}phenyl)amino]pyrazine-2-carboxamide] | ≤ 10 | 100 to 1000 | 10 to 100 | 100 to 1000 | 10 to 100 |
| CN1CCC(n2cc(Nc3nc(N4CCC[C@@H](n5ccc6cc(C7CC7)ccc6c5=O)C4)cnc3C(N)=O)cn2)CC1 [Example D-141, 5-[(3R)-3-(6-cyclopropyl-1-oxo-1,2-dihydroisoquinolin-2-yl)piperidin-1-yl]-3-{[1-(1-methylpiperidin-4-yl)-1H-pyrazol-4-yl]amino}pyrazine-2-carboxamide] | ≤ 10 | 1000 to 10000 | 100 to 1000 | 1000 to 10000 | 100 to 1000 |
| C[C@@H]1[C@H](NC(=O)N(C)C)CCCN1c1cnc(C(N)=O)c(Nc2ccc(C(=O)N3CCN(C)CC3)cc2)n1 [Example D-110, 5-[(2R,3R)-3-[(dimethylcarbamoyl)amino]-2-methylpiperidin-1-yl]-3-{[4-(4-methylpiperazine-1-carbonyl)phenyl]amino}pyrazine-2-carboxamide] | ≤ 10 | 1000 to 10000 | 100 to 1000 | 1000 to 10000 | 100 to 1000 |
| C[C@@H]1CC[C@@H](NC(=O)c2ccc(C3CC3)cc2)CN1c1cnc(C(N)=O)c(Nc2cnn(C)c2)n1 [Example D-143, 5-[(2R,5R)-5-(4-cyclopropylbenzamido)-2-methylpiperidin-1-yl]-3-[(1-methyl-1H-pyrazol-4-yl)amino]pyrazine-2-carboxamide] | 10 to 100 | > 10000 | 1000 to 10000 | 1000 to 10000 | 1000 to 10000 |
| C[C@@H]1[C@H](n2ccc3cc(C4CC4)ccc3c2=O)CCCN1c1cnc(C(N)=O)c(Nc2ccc(N3CCN(C)CC3)cc2)n1 [Example D-6, 5-[(2R,3R)-3-(6-cyclopropyl-1-oxo-1,2-dihydroisoquinolin-2-yl)-2-methylpiperidin-1-yl]-3-{[4-(4-methylpiperazin-1-yl)phenyl]amino}pyrazine-2-carboxamide] | ≤ 10 | 1000 to 10000 | 10 to 100 | 100 to 1000 | 10 to 100 |
| C[C@@H]1[C@H](NC(=O)c2ccc(C3CC3)cc2F)CCCN1c1cnc(C(N)=O)c(Nc2ccc(S(=O)(=O)N3CCCC3)cc2)n1 [Example D-139, 5-[(2R,3R)-3-(4-cyclopropyl-2-fluorobenzamido)-2-methylpiperidin-1-yl]-3-{[4-(pyrrolidine-1-sulfonyl)phenyl]amino}pyrazine-2-carboxamide] | ≤ 10 | > 10000 | > 10000 | 1000 to 10000 | > 10000 |
| C[C@@H]1[C@H](NC(=O)N(C)C)CCCN1c1cnc(C(N)=O)c(Nc2ccc3cccnc3c2)n1 [Example D-121, 5-[(2R,3R)-3-[(dimethylcarbamoyl)amino]-2-methylpiperidin-1-yl]-3-[(quinolin-7-yl)amino]pyrazine-2-carboxamide] | 10 to 100 | 1000 to 10000 | 100 to 1000 | 1000 to 10000 | 100 to 1000 |
| C[C@@H]1[C@H](NC(=O)c2ccc(C3CC3)cc2F)CCCN1c1cnc(C(N)=O)c(Nc2ccc(CN3CCN(C)CC3)cc2)n1 [Example D-113, 5-[(2R,3R)-3-(4-cyclopropyl-2-fluorobenzamido)-2-methylpiperidin-1-yl]-3-({4-[(4-methylpiperazin-1-yl)methyl]phenyl}amino)pyrazine-2-carboxamide] | ≤ 10 | 100 to 1000 | 10 to 100 | 100 to 1000 | 100 to 1000 |
| C[C@@H]1[C@H](NC(=O)c2ccc(C3CC3)cc2F)CCCN1c1cnc(C(N)=O)c(Nc2ccc(C3(C)CCN(C4CC4)CC3)cc2)n1 [Example D-138, 5-[(2R,3R)-3-(4-cyclopropyl-2-fluorobenzamido)-2-methylpiperidin-1-yl]-3-{[4-(1-cyclopropyl-4-methylpiperidin-4-yl)phenyl]amino}pyrazine-2-carboxamide] | ≤ 10 | 10 to 100 | 10 to 100 | 100 to 1000 | 100 to 1000 |
| C[C@@H]1[C@H](NC(=O)c2ccc(C3CC3)cc2)CCCN1c1cnc(C(N)=O)c(Nc2ccc(OC3CCN(CC(F)(F)F)CC3)cc2)n1 [Example D-98, 5-[(2R,3R)-3-(4-cyclopropylbenzamido)-2-methylpiperidin-1-yl]-3-[(4-{[1-(2,2,2-trifluoroethyl)piperidin-4-yl]oxy}phenyl)amino]pyrazine-2-carboxamide] | ≤ 10 | 1000 to 10000 | > 10000 | > 10000 | > 10000 |
| Cc1nsc(Nc2nc(N3CCC[C@@H](NC(=O)N(C)C)[C@H]3C)cnc2C(N)=O)c1C [Example D-119, 3-[(dimethyl-1,2-thiazol-5-yl)amino]-5-[(2R,3R)-3-[(dimethylcarbamoyl)amino]-2-methylpiperidin-1-yl]pyrazine-2-carboxamide] | 100 to 1000 | > 10000 | 1000 to 10000 | 100 to 1000 | 1000 to 10000 |
| C[C@@H]1[C@H](NC(=O)c2ccc(C3CC3)cc2)CCCN1c1cnc(C(N)=O)c(Nc2cc(CN3CCCCC3)ns2)n1 [Example D-140, 5-[(2R,3R)-3-(4-cyclopropylbenzamido)-2-methylpiperidin-1-yl]-3-{[3-(piperidin-1-ylmethyl)-1,2-thiazol-5-yl]amino}pyrazine-2-carboxamide] | ≤ 10 | 100 to 1000 | 10 to 100 | 1000 to 10000 | 10 to 100 |
| C[C@@H]1[C@H](NC(=O)c2ccc(C3CC3)cc2)CCCN1c1cnc(C(N)=O)c(Nc2ccc(N3CCC4(CC3)COC4)cc2)n1 [Example D-99, 5-[(2R,3R)-3-(4-cyclopropylbenzamido)-2-methylpiperidin-1-yl]-3-[(4-{2-oxa-7-azaspiro[3.5]nonan-7-yl}phenyl)amino]pyrazine-2-carboxamide] | ≤ 10 | 100 to 1000 | 100 to 1000 | 1000 to 10000 | 100 to 1000 |
| COC(C)(C)c1ccc(C(=O)N[C@@H]2CCCN(c3cnc(C(N)=O)c(Nc4cnn(C)c4)n3)[C@@H]2C)cc1 [Example D-161, 5-[(2R,3R)-3-[4-(2-methoxypropan-2-yl)benzamido]-2-methylpiperidin-1-yl]-3-[(1-methyl-1H-pyrazol-4-yl)amino]pyrazine-2-carboxamide] | ≤ 10 | 1000 to 10000 | 100 to 1000 | 1000 to 10000 | 10 to 100 |
| C[C@@H]1CC[C@H](NC(=O)c2ccc(C3CC3)cc2)CN1c1cnc(C(N)=O)c(Nc2ccc(N3CCN(C)CC3)c(F)c2)n1 [Example D-149, 5-[(2R,5 S)-5-(4-cyclopropylbenzamido)-2-methylpiperidin-1-yl]-3-{[3-fluoro-4-(4-methylpiperazin-1-yl)phenyl]amino}pyrazine-2-carboxamide] | 10 to 100 | 1000 to 10000 | 100 to 1000 | > 10000 | 100 to 1000 |
| C[C@@H]1[C@H](NC(=O)N(C)C)CCCN1c1cnc(C(N)=O)c(Nc2cnn(C)c2)n1 [Example D-128, 5-[(2R,3R)-3-[(dimethylcarbamoyl)amino]-2-methylpiperidin-1-yl]-3-[(1-methyl-1H-pyrazol-4-yl)amino]pyrazine-2-carboxamide] | ≤ 10 | 1000 to 10000 | 100 to 1000 | 1000 to 10000 | 100 to 1000 |
